Measurements: patent publication US20050169992A1, “Methods and dosage forms for increasing solubility of drug compositions for controlled delivery” (priority 2003, published 2005)

Columns and labels:
[1] = Analytical Profiles of Drug Substances Volume 13, p 425; cited from earlier work
[2] = Saturated solubility of topiramate in de-ionized water and aqueous surfactant solutions at 37° C.; assay type: physicochemical; settings: Lutrol F127, F87, F108, F68 and Myrj 52 solutions at 1, 5, 15 weight percent, FIG. 6
Description: Aqueous solubility is determined by adding the therapeutic agent to stirred or agitated water maintained in a constant temperature bath at a temperature of 37 degrees centigrade until equilibrium is established between the dissolved and undissolved states and the concentration of dissolved drug is constant. The resulting solution saturated with active agent is then filtered, typically under pressure through a 0.8-micron Millipore filter, and the concentration in solution is measured by any appropriate analytical method including gravimetric, ultraviolet spectrophotometry, refractive index, refractive index chromatography, and the like.
The present invention involves a method to match the appropriate solid surfactant or blend of surfactants with a particular pharmaceutical active agent to produce the solubilizing core, or S-Core of the present invention. […] Then, pharmaceutical agent is added in excess to the surfactant solutions and the saturated solubility of the pharmaceutical active agent is then measured by an appropriate analytical method such as ultraviolet spectroscopy, chromatographic methods, or gravimetric analysis. […]
The aqueous surfactant solutions were then equilibrated to constant temperature in a 37° C. water bath. […] The resulting saturated solutions of drug were filtered through 0.8-micron filters and analyzed for drug concentration by refractive index chromatography. […]

Row | SMILES | Solubility of phenytoin [1] | Topiramate solubility in water in the presence of surfactant compared to control [2]
1 | O=C1NC(=O)C(c2ccccc2)(c2ccccc2)N1 [phenytoin] | 20 µg/mL | –
2 | CC1(C)O[C@@H]2[C@@H](CO[C@@]3(COS(N)(=O)=O)OC(C)(C)O[C@@H]23)O1 [topiramate] | – | increased
